From patent US8637252B2, “Methods and compositions for determining altered susceptibility of HIV-1 to anti-HIV drugs” (Monogram Biosciences, Inc., priority 2011, dated 2014)

Assays:
[1] = test system: HIV-1 NL4-3 site-directed reverse transcriptase mutants; experiment: phenotypic drug resistance test, site-directed reverse transcriptase mutants in NL4-3 background (POL segment assay); assay type: cell-based; settings: for resistance versus known NNRTI mutation(s) alone: any of N348I, T369I, E399D combined with G190S, K103N, or K103R and V179D, NL4-3 background
Procedure: Further, a site directed double mutant T3691/K103N was generated using conventional techniques and tested for resistance to an NNRTI using the methods described above.
To assess the effects of mutations at positions 348, 369, and 399, a series of site-directed mutants were constructed in an wild-type (NL4-3) background. The NNRTI susceptibility phenotypes of these mutants were then determined using the POL segment assay according to Example 2.
In particular, site-directed mutants were constructed in an NL4-3 background comprising N348I, T369I, E399D, or the combination of N3481 and T369I.
Next, a series of site-directed mutants were constructed to assess the effects of combinations of N3481, T369I, and E399D with previously recognized NNRTI resistance mutations. In particular, mutants comprising N348I, T369I, and E399D were made in combination with G190S, with K103N, and with the combination of K103R and V179D. The effects of these combinations on DLV, EFV, and NVP susceptibility were tested using the POL segment assay according to the method describe in Example 2. The results from these experiments are presented as FIG. 10.
To assess the specific effects of mutations at positions 348, 369, and 399, a series of site-directed mutants were constructed in an wild-type (NL4-3) background. The AZT susceptibility phenotype of these mutants were then determined with a POL segment assay according to Example 2.
In particular, site-directed mutants were constructed in an NL4-3 background comprising N348I, T3691, E399D, or the combination of N348I and T3691. The FC in AZT susceptibility for each mutant is shown as FIG. 13.

[2] = test system: HIV-1 (PRRT-RH segment of patient sample 62); experiment: phenotypic drug resistance test, PRRT-RH amplicon of sample 62; assay type: cell-based
Excerpt: Patient-derived segment(s) corresponding to the entire pol gene, encoding HIV protease, reverse transcriptase (including RNAse H), and integrase (hereinafter “POL”), the portion of pol encoding amino acids 1-305 of reverse transcriptase (hereinafter “PR-RT”), the portion of pol encoding amino acids 319-440 of reverse transcriptase (including RNAse H), and integrase (hereinafter “RHIN”), were amplified by the reverse transcription-polymerase chain reaction method (RT-PCR) using viral RNA isolated from viral particles present in the plasma or serum of HIV-infected individuals as described below. The portion of pol encoding protease, amino acids 1-531 of reverse transcriptase (including RNase H) (hereinafter “PRRT-RH”), or the portion of pol encoding protease, reverse transcriptase (including RNAse H) and integrase (hereinafter “PRRT-RHIN”), were assembled from amplicons described above by standard recombinant DNA techniques involving a KpnI restriction site at amino acid 400 or a Pin A1 site at amino acid 315.
Drug resistance tests performed with test vectors were carried out using packaging host and target host cells consisting of the human embryonic kidney cell line 293.
Resistance tests were carried out with the RTV libraries by using viral particles comprising the RTV libraries to infect a host cell in which the expression of the indicator gene is measured. The amount of indicator gene (luciferase) activity detected in infected cells is used as a direct measure of “infectivity,” i.e., the ability of the virus to complete a single round of replication. Thus, drug resistance or sensitivity can be determined by plotting the amount of luciferase activity produced by patient derived viruses in the presence of varying concentrations of the antiviral drug. By identifying the concentration of drug at which luciferase activity is half-maximum, the IC50 of the virus from which patient-derived segment(s) were obtained for the antiretroviral agent can be determined. […]

Structure (SMILES)	resistance versus known NNRTI mutation(s) alone [1]	Fold Change in IC50, PRRT-RH amplicon [2] [fold]	resistance of mutant ([1]; site-directed double mutant T369I/K103N)	FC in susceptibility relative to NL4-3, versus G190S mutant ([1]; G190S and E399D combination mutant)
O=C1Nc2ccc(Cl)cc2[C@@](C#CC2CC2)(C(F)(F)F)O1 [EFV, efavirenz]	increased	276.90	–	–
Cc1ccnc2c1NC(=O)c1cccnc1N2C1CC1 [NVP, nevirapine]	increased	400.00	enhanced resistance	–
CC(C)Nc1cccnc1N1CCN(C(=O)c2cc3cc(NS(C)(=O)=O)ccc3[nH]2)CC1 [DLV, delavirdine]	–	250.00	–	the same FC
